Target: T1, Bcl-2 protein (Recombinant Human Bcl-2 Protein) (Homo sapiens, UniProt P10415)
T1 construct: purchased Novus NBP2-34889
Assay: Binding evaluation of mixture library compounds to Bcl-2 using AS-MS (affinity selection mass spectrometry)
Conditions: for ASMS ratio (%) n = 1 / ASMS ratio (%) n = 2: ASMS Ratio(%)=(A−C)/B×100; for ASMS ratio (%) n = 1: replicate n = 1; for ASMS ratio (%) n = 2: replicate n = 2
Method in brief: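 ASMS Ratio (%) was calculated as (A−C)/B×100, where A is the protein sample after SEC, B the protein-free sample without SEC and C the protein-free sample after SEC. Each compound was at […] in a 1200-member pool with 20 μM Bcl-2, incubated 1 h at 23° C.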

[1] = AS-MS, mixture of 1200 compounds, Bcl-2
[2] = AS-MS on the mixture of 1200 library compounds

T1 sequence (P10415 whole entry): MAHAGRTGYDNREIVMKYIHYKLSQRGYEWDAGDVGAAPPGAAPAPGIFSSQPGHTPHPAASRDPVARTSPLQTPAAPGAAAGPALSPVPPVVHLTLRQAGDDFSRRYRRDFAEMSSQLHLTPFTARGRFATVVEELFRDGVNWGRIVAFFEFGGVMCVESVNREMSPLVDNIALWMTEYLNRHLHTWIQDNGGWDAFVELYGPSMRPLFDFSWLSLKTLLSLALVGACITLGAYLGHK

With `CCOc1cccc(-c2ccc(C(=O)N3CCN(c4ccc(C(=O)NCC56CC7CC(CC(C7)C5)C6)cc4)CC3)c3ccccc23)c1` [B1A035-01, N-(1-Adamantylmethyl)-4-[4-[4-(3-ethoxyphenyl)naphthalene-1-carbonyl]piperazin-1-yl]benzamide] the “ASMS ratio (%) n = 1” value [1] was 14.9% and the “ASMS ratio (%) n = 2” value [1] was −7.0%.
`CCOc1cccc(-c2cc(CN3CCN(c4ccc(C(=O)NS(=O)(=O)c5ccc(NCCSc6ccccc6)c([N+](=O)[O-])c5)nn4)CC3)cc(OC(C)C)c2)c1` [B2Q083-01, 6-[4-[[3-(3-Ethoxyphenyl)-5-propan-2-yloxyphenyl]methyl]piperazin-1-yl]-N-[3-nitro-4-(2-phenylsulfanylethylamino)phenyl]sulfonylpyridazine-3-carboxamide] was tested, and the “ASMS ratio (%) n = 2” value (AS-MS, mixture library, Bcl-2) was 0.0%.
`CCOc1cncc(-c2cc(CN3CCN(c4ccc(C(=O)N(C)CC56CC7CC(CC(C7)C5)C6)cc4)CC3)cc(OC(C)C)c2)c1` [B3A058-01, N-(1-Adamantylmethyl)-4-[4-[[3-(5-ethoxypyridin-3-yl)-5-propan-2-yloxyphenyl]methyl]piperazin-1-yl]-N-methylbenzamide] was tested, and the “ASMS ratio (%) n = 1” value [2] was 5.9% and the “ASMS ratio (%) n = 2” value [2] was −7.6%.
For `CCOc1cncc(-c2csc(C(=O)N3CCN(c4ccc(C(=O)NS(=O)(=O)CCC(F)(F)F)nn4)CC3)c2)c1` [B2N002-01, 6-[4-[4-(5-Ethoxypyridin-3-yl)thiophene-2-carbonyl]piperazin-1-yl]-N-(3,3,3-trifluoropropylsulfonyl)pyridazine-3-carboxamide], the “ASMS ratio (%)” value (n = 1) was 0.0% and the “ASMS ratio (%)” value (n = 2) was 0.0%.
In the case of `CCOc1cccc(-c2ccc(C(=O)N3CCN(c4ccc(C(=O)NS(C)(=O)=O)nn4)CC3)cc2C)c1` [B2I003-01, 6-[4-[4-(3-Ethoxyphenyl)-3-methylbenzoyl]piperazin-1-yl]-N-methylsulfonylpyridazine-3-carboxamide], the “ASMS ratio (%) n = 1” value (AS-MS, mixture library, Bcl-2) is reported as 0.0% and the “ASMS ratio (%) n = 2” value (AS-MS, mixture library, Bcl-2) is reported as 0.0%.
`CCOc1cncc(-c2ccc(C(=O)N3CCN(c4ccc(C(=O)NCC56CC7CC(CC(C7)C5)C6)cc4)CC3)cc2C)c1` [B1A026-01, N-(1-Adamantylmethyl)-4-[4-[4-(5-ethoxypyridin-3-yl)-3-methylbenzoyl]piperazin-1-yl]benzamide] was tested, and the “ASMS ratio (%) n = 1” value [1] was 3.0% and the “ASMS ratio (%) n = 2” value [1] was −2.9%.
In the case of `CCOc1cccc(-c2ccc(C(C)N3CCN(c4ccc(C(=O)N(C)CC56CC7CC(CC(C7)C5)C6)cc4)CC3)cc2)c1` (centres unmarked) [B3A097-01, N-(1-Adamantylmethyl)-4-[4-[1-[4-(3-ethoxyphenyl)phenyl]ethyl]piperazin-1-yl]-N-methylbenzamide], the “ASMS ratio (%) n = 1” value [2] is reported as 1.8% and the “ASMS ratio (%) n = 2” value [2] is reported as −5.9%.
For `CCOc1cncc(-c2ccc(C(=O)N3CCN(c4ccc(C(=O)NS(=O)(=O)C(C)(C)C)nn4)CC3)c3ccccc23)c1` [B2L014-01, N-tert-Butylsulfonyl-6-[4-[4-(5-ethoxypyridin-3-yl)naphthalene-1-carbonyl]piperazin-1-yl]pyridazine-3-carboxamide], the “ASMS ratio (%)” value (n = 1) was 0.3% and the “ASMS ratio (%)” value (n = 2) was 0.5%.
In the case of `CCOc1cccc(-c2cc(CN3CCN(c4ccc(C(=O)N(CC)CC)cc4)CC3)cc(C(F)(F)F)c2)c1` [B4J061-01, 4-[4-[[3-(3-Ethoxyphenyl)-5-(trifluoromethyl)phenyl]methyl]piperazin-1-yl]-N,N-diethylbenzamide], the “ASMS ratio (%) n = 1” value (AS-MS, mixture library, Bcl-2) is reported as 1.6% and the “ASMS ratio (%) n = 2” value (AS-MS, mixture library, Bcl-2) is reported as −1.8%.
In the case of `CCOc1cccc(-c2ccc(C(=O)N3CCN(c4ccc(C(=O)Nc5ccc(OC)cc5)nn4)CC3)c3ccccc23)c1` [B1O013-01, 6-[4-[4-(3-Ethoxyphenyl)naphthalene-1-carbonyl]piperazin-1-yl]-N-(4-methoxyphenyl)pyridazine-3-carboxamide], the “ASMS ratio (%) n = 1” value [2] is reported as 2.2% and the “ASMS ratio (%) n = 2” value [2] is reported as −4.0%.
In the case of `CCCNC(=O)c1ccc(N2CCN(Cc3cc(-c4cccc(OCC)c4)cc(C(F)(F)F)c3)CC2)nn1` [B1M027-01], the “ASMS ratio (%) n = 1” value [1] is reported as 1.0% and the “ASMS ratio (%) n = 2” value [1] is reported as 0.4%.
`CCOc1cncc(-c2cc(C(=O)N3CCN(c4ccc(C(=O)NS(=O)(=O)C(C)(C)C)nn4)CC3)cc(C(C)(C)C)c2)c1` [B2L016-01, 6-[4-[3-tert-Butyl-5-(5-ethoxypyridin-3-yl)benzoyl]piperazin-1-yl]-N-tert-butylsulfonylpyridazine-3-carboxamide] was tested, and the “ASMS ratio (%)” value (n = 1) was 0.0% and the “ASMS ratio (%)” value (n = 2) was −5.4%.
For `CCCNC(=O)c1ccc(N2CCN(Cc3ccc(-c4cccc(OCC)c4)c(C)c3)CC2)cc1` [B1M058-01], the “ASMS ratio (%) n = 1” value [1] was −1.4% and the “ASMS ratio (%) n = 2” value [1] was −1.5%.
In the case of `CCOc1cccc(-c2ccc(C(=O)N3CCN(c4ccc(C(=O)NS(=O)(=O)CCC(F)(F)F)nn4)CC3)c3ccccc23)c1` [B2N013-01, 6-[4-[4-(3-Ethoxyphenyl)naphthalene-1-carbonyl]piperazin-1-yl]-N-(3,3,3-trifluoropropylsulfonyl)pyridazine-3-carboxamide], the “ASMS ratio (%)” value (n = 1) is reported as 0.0% and the “ASMS ratio (%)” value (n = 2) is reported as 0.0%.
`CCOc1cccc(-c2ccc(CN3CCN(c4ccc(C(=O)NS(=O)(=O)CCC(F)(F)F)cc4)CC3)c(CC)c2)c1` [B2N049-01, 4-[4-[[4-(3-Ethoxyphenyl)-2-ethylphenyl]methyl]piperazin-1-yl]-N-(3,3,3-trifluoropropylsulfonyl)benzamide] was tested, and the “ASMS ratio (%)” value (n = 1) was 0.0% and the “ASMS ratio (%)” value (n = 2) was 0.0%.
`CCOc1cccc(-c2cc(CN3CCN(c4ccc(C(=O)NS(=O)(=O)C(C)(C)C)nn4)CC3)cc(OCC)c2)c1` [B2L081-01, N-tert-Butylsulfonyl-6-[4-[[3-ethoxy-5-(3-ethoxyphenyl)phenyl]methyl]piperazin-1-yl]pyridazine-3-carboxamide] was tested, and the “ASMS ratio (%)” value (n = 1) was 0.0% and the “ASMS ratio (%)” value (n = 2) was 0.0%.
With `CCOc1cncc(-c2cc(C(=O)N3CCN(c4ccc(C(=O)N(C)CC56CC7CC(CC(C7)C5)C6)nn4)CC3)cc(C(C)(C)C)c2)c1` [B3A016-01, N-(1-Adamantylmethyl)-6-[4-[3-tert-butyl-5-(5-ethoxypyridin-3-yl)benzoyl]piperazin-1-yl]-N-methylpyridazine-3-carboxamide] the “ASMS ratio (%) n = 1” value [2] was 2.8% and the “ASMS ratio (%) n = 2” value [2] was 0.1%.
With `CCOc1cccc(-c2ccc(C(C)N3CCN(c4ccc(C(=O)N(CC)CC)cc4)CC3)cc2)c1` (centres unmarked) [B4J097-01, 4-[4-[1-[4-(3-Ethoxyphenyl)phenyl]ethyl]piperazin-1-yl]-N,N-diethylbenzamide] the “ASMS ratio (%) n = 1” value (AS-MS, mixture library, Bcl-2) was −0.9% and the “ASMS ratio (%) n = 2” value (AS-MS, mixture library, Bcl-2) was −0.4%.
With `CCOc1cccc(C#Cc2cc(C(=O)N3CCN(c4ccc(C(=O)NCC(F)(F)F)cc4)CC3)cc(C(F)(F)F)c2)c1` [B1K041-01, 4-[4-[3-[2-(3-Ethoxyphenyl)ethynyl]-5-(trifluoromethyl)benzoyl]piperazin-1-yl]-N-(2,2,2-trifluoroethyl)benzamide] the “ASMS ratio (%) n = 1” value [1] was 0.0% and the “ASMS ratio (%) n = 2” value [1] was 0.0%.
In the case of `CCOc1cncc(-c2ccc(CN3CCN(c4ccc(C(=O)NS(=O)(=O)CC56CC7CC(CC(C7)C5)C6)cc4)CC3)c3ccccc23)c1` [B2A066-01, N-(1-Adamantylmethylsulfonyl)-4-[4-[[4-(5-ethoxypyridin-3-yl)naphthalen-1-yl]methyl]piperazin-1-yl]benzamide], the “ASMS ratio (%) n = 1” value (AS-MS, mixture library, Bcl-2) is reported as 3.2% and the “ASMS ratio (%) n = 2” value (AS-MS, mixture library, Bcl-2) is reported as 0.0%.
With `CCOc1cncc(-c2ccc(CN3CCN(c4ccc(C(=O)NS(=O)(=O)CC56CC7CC(CC(C7)C5)C6)cc4)CC3)cc2C)c1` [B2A048-01, N-(1-Adamantylmethylsulfonyl)-4-[4-[[4-(5-ethoxypyridin-3-yl)-3-methylphenyl]methyl]piperazin-1-yl]benzamide] the “ASMS ratio (%) n = 1” value (AS-MS, mixture library, Bcl-2) was 18.2% and the “ASMS ratio (%) n = 2” value (AS-MS, mixture library, Bcl-2) was 2.1%.
With `CCOc1cncc(-c2csc(C(=O)N3CCN(c4ccc(C(=O)N(C)CC56CC7CC(CC(C7)C5)C6)cc4)CC3)c2)c1` [B3A024-01, N-(1-Adamantylmethyl)-4-[4-[4-(5-ethoxypyridin-3-yl)thiophene-2-carbonyl]piperazin-1-yl]-N-methylbenzamide] the “ASMS ratio (%) n = 1” value [2] was 1.6% and the “ASMS ratio (%) n = 2” value [2] was −0.4%.
`CCOc1cncc(-c2ccc(C(=O)N3CCN(c4ccc(C(=O)NS(=O)(=O)c5ccc(NCCSc6ccccc6)c(C(F)(F)F)c5)nn4)CC3)c3ccccc23)c1` [B2R014-01, 6-[4-[4-(5-Ethoxypyridin-3-yl)naphthalene-1-carbonyl]piperazin-1-yl]-N-[4-(2-phenylsulfanylethylamino)-3-(trifluoromethyl)phenyl]sulfonylpyridazine-3-carboxamide] was tested, and the “ASMS ratio (%)” value (n = 1) was 18.6% and the “ASMS ratio (%)” value (n = 2) was 15.1%.
In the case of `CCOc1cncc(-c2ccc(CN3CCN(c4ccc(C(=O)NS(=O)(=O)C(C)(C)C)nn4)CC3)c3ccccc23)c1` [B2L092-01, N-tert-Butylsulfonyl-6-[4-[[4-(5-ethoxypyridin-3-yl)naphthalen-1-yl]methyl]piperazin-1-yl]pyridazine-3-carboxamide], the “ASMS ratio (%)” value (n = 1) is reported as 5.5% and the “ASMS ratio (%)” value (n = 2) is reported as 7.8%.
